# In patent US4371465A, “Mammalian collagenase inhibitors” (American Home Products Corporation, priority 1981, dated 1983):
# System: collagenase
# Assay: Collagenase inhibition (acetyl 14C collagen hydrolysis, procedure of Sellers et al.)
# Format: biochemical
# Settings: 2 mM inhibitor; 35° C., 5 to 18 hours; Tris-CaCl2 pH 7.4; vs control devoid of inhibitor
# Procedure: The inhibitory effect of the compounds of this invention toward collagenase was determined following the procedure of Sellers et al., Biochem J. 167 353-360 (1977) whereby the 2mM of the inhibitor being tested is incubated at 35° C. for from 5 to 18 hours (depending upon the potency of the collagenase) with collagen and collagenase (buffered with Tris®-CaCl2; pH 7.4). The collagen is acetyl ^14 C collagen. The samples are centrifuged and an aliquot removed for assay on a scintillation counter. Because native collagen forms insoluble fibrils under the test conditions, the supernatant liquid contains radioactivity as a measure of hydrolysis. The collagenase activity in the presence of 2mM inhibitor is compared to activity in a control devoid of inhibitor and the results reported as percent inhibition of collagenase activity. Each of the compounds of this invention have been established as active collagenase inhibitors by the test procedure.
# The following example illustrates the preparation of a typical, representative compound of the invention. The precent inhibition of collagenase activity at the 2 mM polypeptide level in accordance with the previously described standard testing procedure is provided after the preparatory description is compared to D-penicillamine alone, the latter being a known collagenase inhibitor.
compound,measurement,value
CC(C)(S)[C@@H](N)C(=O)O [D-penicillamine],Percent inhibition collagenase,39
